Consider nine compounds from ChEMBL document CHEMBL1127907, “Design of a potent 5-HT4 receptor agonist with nanomolar affinity” (Bioorg Med Chem Lett, 1994).

Structures are written as SMILES.

As a reminder, the IC50 is the concentration at which inhibition is half-maximal. High values mean weaker potency in that assay, low ones greater potency in that assay. The term Ki denotes a dissociation constant, usually derived from enzyme kinetics or from competition with a known ligand. The low end stands for tighter binding, the high end for weaker binding. As a reminder, the EC50 is the concentration that produces a half-maximal response. Lower therefore signals higher potency in that assay.

T1 sequence (O70528 whole entry): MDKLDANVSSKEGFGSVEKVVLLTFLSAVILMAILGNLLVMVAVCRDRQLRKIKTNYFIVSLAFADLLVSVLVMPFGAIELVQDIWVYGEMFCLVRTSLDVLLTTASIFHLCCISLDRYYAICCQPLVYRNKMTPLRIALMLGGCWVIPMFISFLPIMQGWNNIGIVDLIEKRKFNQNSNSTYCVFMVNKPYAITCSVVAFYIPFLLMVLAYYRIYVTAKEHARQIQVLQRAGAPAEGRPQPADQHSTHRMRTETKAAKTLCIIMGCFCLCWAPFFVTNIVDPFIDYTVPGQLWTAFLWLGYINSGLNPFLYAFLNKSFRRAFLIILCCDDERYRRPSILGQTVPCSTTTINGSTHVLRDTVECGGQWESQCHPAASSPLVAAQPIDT
Sequence of 5-hydroxytryptamine receptor 4 (Cavia porcellus) (O70528 whole entry): as above

The first test has as its target T1, 5-hydroxytryptamine receptor 4 (Cavia porcellus, UniProt O70528). Put plainly: 5-hydroxytryptamine 4 receptor antagonist activity expressed as the concentration which produced a 50% reduction of 5-HT induced contraction in guinea pig ileum. It is filed as functional, tissue-based.
In turn, `COc1cc(N)c(Cl)cc1C(=O)OC1CCN(C)CC1` came in with an IC50 of 60 nM.

The next test addresses T2, Serotonin 3 (5-HT3) receptor (Rattus norvegicus, UniProt P35563+Q9JJ16).
T2 sequence (P35563 whole entry): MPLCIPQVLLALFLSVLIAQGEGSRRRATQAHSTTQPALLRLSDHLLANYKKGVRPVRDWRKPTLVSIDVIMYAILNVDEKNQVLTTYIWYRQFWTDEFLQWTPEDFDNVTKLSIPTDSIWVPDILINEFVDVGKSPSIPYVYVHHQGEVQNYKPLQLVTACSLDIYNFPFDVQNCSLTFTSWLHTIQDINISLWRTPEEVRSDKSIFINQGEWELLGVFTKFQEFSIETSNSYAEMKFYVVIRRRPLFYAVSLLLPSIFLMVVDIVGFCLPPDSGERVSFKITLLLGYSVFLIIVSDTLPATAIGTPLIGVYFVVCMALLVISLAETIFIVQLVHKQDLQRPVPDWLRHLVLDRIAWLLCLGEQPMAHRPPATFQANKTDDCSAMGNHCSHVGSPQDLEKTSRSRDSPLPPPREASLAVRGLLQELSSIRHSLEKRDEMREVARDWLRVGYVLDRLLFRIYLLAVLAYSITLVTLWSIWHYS
T2 sequence (Q9JJ16 whole entry): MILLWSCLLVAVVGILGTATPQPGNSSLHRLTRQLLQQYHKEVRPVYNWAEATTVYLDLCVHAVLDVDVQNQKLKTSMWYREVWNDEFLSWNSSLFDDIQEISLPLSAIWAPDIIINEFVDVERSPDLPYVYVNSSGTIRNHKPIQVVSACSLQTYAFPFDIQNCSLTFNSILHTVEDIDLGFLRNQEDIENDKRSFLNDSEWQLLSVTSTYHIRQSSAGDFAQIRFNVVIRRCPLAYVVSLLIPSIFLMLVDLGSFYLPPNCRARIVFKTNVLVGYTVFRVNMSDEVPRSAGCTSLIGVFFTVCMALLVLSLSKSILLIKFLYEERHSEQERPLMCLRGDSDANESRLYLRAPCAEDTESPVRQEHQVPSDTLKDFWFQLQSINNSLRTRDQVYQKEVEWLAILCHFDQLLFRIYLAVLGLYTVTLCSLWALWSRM
As to the kind of experiment: Binding affinity against 5-hydroxytryptamine 3 receptor using [3H]BRL-43694 in rat posterior cortex. It is filed as tissue-based.
On to `CCN(CC)CCNC(=O)c1cc(Cl)c(N)cc1OC` [METOCLOPRAMIDE], for which the inhibition constant Ki was found to be 443 nM. That is a sub-micromolar value.
On the same count and under the same terms, for `COc1cc(N)c(Cl)cc1C(=O)OCCN1CCCCC1` the value was 782 nM; for `CCN(CC)CCOC(=O)c1cc(Cl)c(N)cc1OC`, 205 nM.
The same measure, in the same setting: as for `COc1cc(N)c(Cl)cc1C(=O)OC1CCN(C)CC1`, the figure is 72 nM.
The same measure, in the same setting: as for `COc1cc(N)c(Cl)cc1C(=O)NC1CN2CCC1CC2` (centres undefined) [ZACOPRIDE], the figure is 0.7 nM; as for `COc1cc(N)c(Cl)cc1C(=O)OC1CC2CCC(C1)N2C` (centres undefined), 3.2 nM; as for `CCN1CCC(OC(=O)c2cc(Cl)c(N)cc2OC)CC1`, 118 nM.

A further test has as its target T1, 5-hydroxytryptamine receptor 4. Put plainly: 5-hydroxytryptamine 4 receptor agonist activity as increased response to electrical stimulation in guinea pig ileum. It is filed as functional, tissue-based.
For the compound `CCN(CC)CCOC(=O)c1cc(Cl)c(N)cc1OC`, the EC50 is above 1000 nM.
On the same count and under the same terms, as for `COc1cc(N)c(Cl)cc1C(=O)OC1CCN(C)CC1`, the figure is 110 nM.
Still for that read-out and setting: for `CCN1CCCC(OC(=O)c2cc(Cl)c(N)cc2OC)C1` (centres undefined) the value was 44 nM; for `COc1cc(N)c(Cl)cc1C(=O)NC1CN2CCC1CC2` (centres undefined) [ZACOPRIDE], 260 nM; for `COc1cc(N)c(Cl)cc1C(=O)OC1CC2CCC(C1)N2C` (centres undefined), 27 nM.
Turning to `CCN1CCC(OC(=O)c2cc(Cl)c(N)cc2OC)CC1`, the midpoint of the response, the EC50, lay at 22 nM.

The target of another test is T3, 5-hydroxytryptamine receptor 4 (Rattus norvegicus, UniProt Q62758). Put plainly: 5-hydroxytryptamine 4 receptor agonist activity was determined by the relaxation of the carbachol-contracted rat esophageal tunica muscularis mucosae. It is filed as functional.
T3 sequence (Q62758 whole entry): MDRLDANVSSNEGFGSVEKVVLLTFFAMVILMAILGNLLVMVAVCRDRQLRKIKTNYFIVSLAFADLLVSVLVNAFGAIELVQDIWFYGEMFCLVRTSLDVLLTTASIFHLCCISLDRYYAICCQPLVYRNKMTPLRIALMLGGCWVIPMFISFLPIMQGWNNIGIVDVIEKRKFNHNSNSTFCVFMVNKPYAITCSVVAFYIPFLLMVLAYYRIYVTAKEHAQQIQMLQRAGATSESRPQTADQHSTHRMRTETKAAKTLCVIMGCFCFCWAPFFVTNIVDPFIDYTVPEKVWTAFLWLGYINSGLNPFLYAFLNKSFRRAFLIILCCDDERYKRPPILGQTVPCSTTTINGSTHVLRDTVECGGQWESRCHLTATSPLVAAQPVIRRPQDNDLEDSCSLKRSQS
Regarding `COc1cc(N)c(Cl)cc1C(=O)OCCN1CCCCC1`, the IC50 was 2.4 nM.

A further test concerns the target T3, 5-hydroxytryptamine receptor 4. Put plainly: Binding affinity against 5-hydroxytryptamine 4 receptor using [3H]GR-113808 as radioligand in rat striatum. Type of test: tissue-based.
Turning to `COc1cc(N)c(Cl)cc1C(=O)OCCN1CCCCC1`, the Ki is 1.07 nM. That is a single-digit nanomolar value.
On the same count and under the same terms, for `CCN(CC)CCOC(=O)c1cc(Cl)c(N)cc1OC` the value was 5.3 nM.
On the same count and under the same terms, for `COc1cc(N)c(Cl)cc1C(=O)OC1CCN(C)CC1` the value was 23 nM; for `CCN1CCCC(OC(=O)c2cc(Cl)c(N)cc2OC)C1` (centres undefined), 34.5 nM.
`COc1cc(N)c(Cl)cc1C(=O)NC1CN2CCC1CC2` (centres undefined) [ZACOPRIDE] gave a Ki of 753 nM.
Turning to `COc1cc(N)c(Cl)cc1C(=O)OC1CC2CCC(C1)N2C` (centres undefined), the Ki worked out at 64.3 nM.
The same measure, in the same setting: as for `CCN1CCC(OC(=O)c2cc(Cl)c(N)cc2OC)CC1`, the figure is 10.3 nM.

The target of another test is T1, 5-hydroxytryptamine receptor 4. Put plainly: 5-hydroxytryptamine 4 receptor antagonist activity expressed as the concentration which produced a 50% reduction of 5-HT induced contraction in guinea pig ileum; Not evaluable. Type of test: functional, tissue-based.
Turning to `CCN(CC)CCOC(=O)c1cc(Cl)c(N)cc1OC`, the IC50 came to 77 nM.

A further test has as its target 5-hydroxytryptamine receptor 4 (Cavia porcellus) (UniProt O70528). Put plainly: 5-hydroxytryptamine 4 receptor agonist activity as percent maximum 5-HT effect in response to electrical stimulation in male guinea pig ileum. It is filed as functional, tissue-based.
Take `COc1cc(N)c(Cl)cc1C(=O)OCCN1CCCCC1`: the Activity worked out at 80%.
The compound `NCCc1c[nH]c2ccc(O)cc12` registered an Activity of 100%.
Still for that read-out and setting: for `COc1cc(N)c(Cl)cc1C(=O)OC1CCN(C)CC1` the value was 53%; for `CCN1CCCC(OC(=O)c2cc(Cl)c(N)cc2OC)C1` (centres undefined), 79%; for `COc1cc(N)c(Cl)cc1C(=O)OC1CC2CCC(C1)N2C` (centres undefined), 54%.
Still for that read-out and setting: as for `CCN1CCC(OC(=O)c2cc(Cl)c(N)cc2OC)CC1`, the figure is 60%.
